Results as given in publication PMC10333360, “Establishing mammalian GLUT kinetics and lipid composition influences in a reconstituted-liposome system” (Nature Communications, 2023).

Tests used:
rGLUT5 [1] = target: T1, rGLUT5 (Rattus norvegicus, UniProt P43427); experiment: competitive […]-D-fructose uptake in proteoliposomes, […] compound, […] reduction; format: biochemical
T1 construct: gene Slc2a5
T1 sequence (P43427 1-502): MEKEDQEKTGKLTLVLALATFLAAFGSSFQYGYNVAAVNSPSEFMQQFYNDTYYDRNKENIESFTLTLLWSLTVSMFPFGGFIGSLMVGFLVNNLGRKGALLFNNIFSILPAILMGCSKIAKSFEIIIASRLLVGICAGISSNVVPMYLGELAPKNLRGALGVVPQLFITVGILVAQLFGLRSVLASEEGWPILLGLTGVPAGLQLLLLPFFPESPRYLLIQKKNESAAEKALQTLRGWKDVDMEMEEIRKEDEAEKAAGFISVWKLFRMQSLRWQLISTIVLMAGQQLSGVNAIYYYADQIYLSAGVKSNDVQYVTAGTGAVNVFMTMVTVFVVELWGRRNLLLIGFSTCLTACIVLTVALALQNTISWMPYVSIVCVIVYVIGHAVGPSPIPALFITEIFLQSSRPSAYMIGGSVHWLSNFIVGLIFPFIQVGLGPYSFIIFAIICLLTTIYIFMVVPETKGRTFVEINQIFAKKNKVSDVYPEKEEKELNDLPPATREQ

rGLUT5 [2] = target: T1, rGLUT5; experiment: inhibition of […]-D-fructose uptake by purified rGLUT5 in brain-fraction-seven proteoliposomes; format: biochemical

| SMILES | % reduction (rGLUT5 [1]) [% reduction] | IC50 (rGLUT5 [2]) [µM] |
| --- | --- | --- |
| Cc1ccc(NC(=O)Oc2ccccc2)cc1 [C2, phenyl-n-(p-tolyl)-carbamate] | 20 |  |
| Cc1ccc(NC(=O)Oc2ccc(C)cc2)cc1 [H4, 4-methylphenyl-N-(4-methylphenyl)-carbamate] |  | 500 |
